Source: patent US20250304576A1 (Cancer Research Technology Limited, priority 2022, published 2025)

These molecules were tested against T1, CHUK (IKK alpha) (Homo sapiens, UniProt O15111) (assay: Adapta IKKα assay (TR-FRET ADP formation, Life Technologies)). Conditions: Adapta assay.
T1 construct: purchased Life Technologies (assay performed by the vendor)
T1 sequence (O15111 1-745): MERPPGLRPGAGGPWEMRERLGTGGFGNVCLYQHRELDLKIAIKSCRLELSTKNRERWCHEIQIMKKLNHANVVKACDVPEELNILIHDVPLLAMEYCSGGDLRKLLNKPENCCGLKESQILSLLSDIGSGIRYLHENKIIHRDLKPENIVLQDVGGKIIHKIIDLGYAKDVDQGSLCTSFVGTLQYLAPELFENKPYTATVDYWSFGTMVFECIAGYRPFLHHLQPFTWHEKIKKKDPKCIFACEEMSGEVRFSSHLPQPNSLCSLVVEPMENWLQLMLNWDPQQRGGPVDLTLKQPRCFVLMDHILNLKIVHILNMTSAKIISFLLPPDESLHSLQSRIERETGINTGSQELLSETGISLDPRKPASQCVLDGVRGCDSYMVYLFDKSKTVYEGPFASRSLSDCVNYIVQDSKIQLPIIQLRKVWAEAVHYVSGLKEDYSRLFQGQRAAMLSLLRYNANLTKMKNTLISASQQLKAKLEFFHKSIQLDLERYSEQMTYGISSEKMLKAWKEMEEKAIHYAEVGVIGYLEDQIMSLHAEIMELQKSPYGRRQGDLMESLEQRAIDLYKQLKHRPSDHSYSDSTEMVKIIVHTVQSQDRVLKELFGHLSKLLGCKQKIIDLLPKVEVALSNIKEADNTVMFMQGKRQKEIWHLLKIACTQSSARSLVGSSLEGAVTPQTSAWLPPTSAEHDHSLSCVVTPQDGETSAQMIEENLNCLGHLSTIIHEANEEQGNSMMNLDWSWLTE
Assay type: biochemical
Protocol: IKKα and IKKβ inhibitory activity was determined using three different assays: a dissociation enhanced ligand fluorescent immunoassay (DELFIA) based on the protocol of HTScan™ IKKβ Kinase Assay (Cell Signaling Technology, USA); an Adapta IKKα assay (performed by Life Technologies); a Z′-LYTE™ IKKβ assay (performed by Life Technologies).
The reaction was performed in low-volume white 384-well plates (Corning model 4512).
The test compounds were screened in 1% DMSO (final) in the well. For 10 point titrations, 3-fold serial dilutions were conducted from the starting concentration of 50 mM.
The 2× CHUK (IKK alpha) kinase was prepared in 50 mM HEPES pH 7.5, 0.01% BRIJ-35, 10 mM MgCl2 and 1 mM EGTA. The final 10 μL kinase mixture consisted of 50-250 ng CHUK (IKK alpha) in 32.5 mM HEPES pH 7.5, 0.005% BRIJ-35, 5 mM MgCl2 and 0.5 mM EGTA. No substrate was required, as the assay measures the ability of a compound to inhibit the kinase's intrinsic ATPase activity.
5 μL of 2× Kinase mixture was incubated with 2.5 μL of ATP solution diluted to a 4×working concentration in water, in the presence of 100 nL of 100× test compound in 100% DMSO and 2.4 μL of 30 mM HEPES buffer.
After 30-second plate shake and 1-minute centrifuge at 1000×g, the resulting kinase reaction was allowed to incubate for 1 hour at room temperature before 5 μL of Detection Mix was added.
The Detection Mix, previously prepared in TR-FRET Dilution Buffer, consisted of EDTA (30 mM), Eu-anti-ADP antibody (6 nM) and an Alexa Fluor™ 647 labelled ADP tracer. The Detection Mix contained the EC60 concentration of tracer for 5-150 μM ATP.
After 30-second plate shake and 1-minute centrifuge at 1000×g, the Detection Mix was allowed to equilibrate at room temperature for 1 hour. Then the plate was read using a fluorescence plate reader configured for Adapta™ TR-FRET and the data analysed.
ADP formation was determined by calculating the emission ratio from the assay well. Therefore, the emission ratio was calculated by dividing the intensity of the tracer (acceptor) emission by the intensity of the Eu (donor) emission at 615 nm as shown in the equation below.
The IKKα and IKKb figures quoted in italicised form are from the Adapta assay described above.

Structure (SMILES)	IC50
CC(C)(O)C#Cc1cc(-c2ccnc(N)c2)cc2c(N)n[nH]c12 [Example 140, 4-(3-Amino-5-(2-aminopyridin-4-yl)-1H-indazol-7-yl)-2-methylbut-3-yn-2-ol]	39 nM
CC(C)(C)OCC#Cc1c(-c2ccc3[nH]nc(N)c3c2)ccnc1N [Example 88, 5-(2-Amino-3-(3-(tert-butoxy)prop-1-yn-1-yl)pyridine-4-yl)-1H-indazol-3-amine]	8 nM
Nc1nccc(-c2ccc3[nH]nc(N)c3c2)c1C#CCCN1CCCCC1 [Example 93, 5-(2-Amino-3-(4-(piperidin-1-yl)but-1-yn-1-yl)pyridin-4-yl)-1H-indazol-3-amine]	7 nM
Nc1nccc(-c2ccc3[nH]nc(N)c3c2)c1C#CCO [Example 83, 3-(2-Amino-4-(3-amino-1H-indazol-5-yl)pyridine-3-yl)prop-2-yn-1-ol]	1 nM
Nc1nccc(-c2ccc3[nH]nc(N)c3c2)c1C#CC1CCCC1 [Example 73, 5-(2-Amino-3-(cyclopentylethynyl)pyridine-4-yl)-1H-indazol-3-amine]	2 nM
CC(C)(O)C#Cc1c(-c2ccc3[nH]nc(N)c3c2)ccnc1N [Example 87, 4-(2-Amino-4-(3-amino-1H-indazol-5-yl)pyridine-3-yl)-2-methylbut-3-yn-2-ol]	4 nM
Nc1nccc(-c2ccc3[nH]nc(N)c3c2)c1C#CCCCO [Example 85, 5-(2-Amino-4-(3-amino-1H-indazol-5-yl)pyridine-3-yl)pent-4-yn-1-ol]	1 nM
Nc1nccc(-c2ccc3[nH]nc(N)c3c2)c1C#CCCC(=O)N1CCOCC1 [Example 99, 5-(2-Amino-4-(3-amino-1H-indazol-5-yl)pyridine-3-yl)-1-morpholinopent-4-yn-1-one]	3 nM

Same assay, conditions: Adapta assay (second line of an example)

Structure (SMILES)	IC50
Nc1n[nH]c2c(C#CCCCN3CCCCC3)cc(-c3ccnc4[nH]ccc34)cc12 [Example 212, 7-(5-(Piperidin-1-yl)pent-1-yn-1-yl)-5-(1H-pyrrolo[2,3-b]pyridin-4-yl)-1H-indazol-3-amine]	12 nM
Nc1n[nH]c2ccc(-c3ccnc4[nH]c(C5CCCCC5)cc34)cc12 [Example 219, 5-(2-Cyclohexyl-1H-pyrrolo[2,3-b]pyridin-4-yl)-1H-indazol-3-amine]	14 nM
Nc1n[nH]c2ccc(-c3ccnc4[nH]c(CCCN5CCOCC5)cc34)cc12 [Example 271, 5-(2-(3-Morpholinopropyl)-1H-pyrrolo[2,3-b]pyridin-4-yl)-1H-indazlo-3-amine]	1 nM
Nc1n[nH]c2ccc(-c3ccnc4[nH]c(CO)cc34)cc12 [Example 224]	1 nM
Nc1n[nH]c2ccc(-c3ccnc4[nH]c(CCN5CCCCC5)cc34)cc12 [Example 267, 5-(2-(2-(Piperidin-1-yl)ethyl)-1H-pyrrolo[2,3-b]pyridine-4-yl)-1H-indazol-3-amine]	8 nM
CC(C)(C)Cc1cc2c(-c3ccc4[nH]nc(N)c4c3)ccnc2[nH]1 [Example 220, 5-(2-Neopentyl-1H-pyrrolo[2,3-b]pyridin-4-yl)-1H-indazol-3-amine]	2 nM
Nc1n[nH]c2ccc(-c3ccnc4[nH]c(C5CCCCN5)cc34)cc12 (stereo not shown) [Example 250, 5-(2-(Piperidin-2-yl)-1H-pyrrolo[2,3-b]pyridine-4-yl)-1H-indazol-3-amine]	41 nM
Nc1n[nH]c2ccc(-c3ccnc4[nH]c(C(=O)NC5CCCCC5)cc34)cc12 [Example 236, 4-(3-Amino-1H-indazol-5-yl)-N-cyclohexyl-1H-pyrrolo[2,3-b]pyridine-2-carboxamide]	2 nM
Nc1n[nH]c2ccc(-c3ccnc4[nH]c(CC5CCOCC5)cc34)cc12 [Example 230, 5-(2-((tetrahydro-2H-pyran-4-yl)methyl)-1H-pyrrolo[2,3-b]pyridin-4-yl)-1H-indazol-3-amine]	1 nM
Nc1n[nH]c2ccc(-c3ccnc4[nH]c(C(=O)N5CCCC5)cc34)cc12 [Example 234, (4-(3-Amino-1H-indazol-5-yl)-1H-pyrrolo[2,3-b]pyridin-2-yl)(pyrrolidin-1-yl)methanone]	32 nM
Nc1n[nH]c2ccc(-c3ccnc4[nH]c(C5CCCCO5)cc34)cc12 (stereo not shown) [Example 229, 5-(2-(Tetrahydro-2H-pyran-2-yl)-1H-pyrrolo[2,3-b]pyridin-4-yl)-1H-indazol-3-amine]	1 nM
CC(C)(O)C#Cc1cc(-c2ccnc3[nH]ccc23)cc2c(N)n[nH]c12 [Example 206, 4-(3-Amino-5-(1H-pyrrolo[2,3-b]pyridin-4-yl)-1H-indazol-7-yl)-2-methylbut-3-yn-2-ol]	9 nM
Nc1n[nH]c2ccc(-c3ccnc4[nH]c(C5CCOCC5)cc34)cc12 [Example 228, 5-(2-(tetrahydro-2H-pyran-4-yl)-1H-pyrrolo[2,3-b]pyridin-4-yl)-1H-indazol-3-amine]	1 nM
Nc1n[nH]c2c(C#CC3CCCCC3)cc(-c3ccnc4[nH]ccc34)cc12 [Example 204, 7-(Cyclohexylethynyl)-5-(1H-pyrrolo[2,3-b]pyridin-4-yl)-1H-indazol-3-amine]	198 nM
CN1CCCN(Cc2cc3c(-c4ccc5[nH]nc(N)c5c4)ccnc3[nH]2)CC1 [Example 266, 5-(2-((4-Methyl-1,4-diazepan-1-yl)methyl)-1H-pyrrolo[2,3-b]pyridin-4-yl)-1H-indazol-3-amine]	11 nM
Nc1n[nH]c2ccc(-c3ccnc4[nH]c(CC5CCCCC5)cc34)cc12 [Example 221, 5-(2-(Cyclohexylmethyl)-1H-pyrrolo[2,3-b]pyridin-4-yl)-1H-indazol-3-amine]	8 nM
CC(C)(C)NCc1cc2c(-c3ccc4[nH]nc(N)c4c3)ccnc2[nH]1 [Example 248, 5-(2-((tert-Butylamino)methyl)-1H-pyrrolo[2,3-b]pyridine-4-yl)-1H-indazol-3-amine]	34 nM
